From patent publication US20240018136A1, “CDK Inhibitors And Their Use As Pharmaceuticals” (Prelude Therapeutics, Incorporated, priority 2022, published 2024) come the findings set out here.

In assay [1] the test system is OVCAR3 p-RB. Nature of the assay: pRB ICW assay in OVCAR3 cells. The assay is classed as cell-based. The note with it: Homo sapiens, OVCAR-3, incubated with compound for 2 hours. The method, then:
pRB ICW Assay in OVCAR3 Cells
OVCAR3 cells were maintained in RPMI (Corning, Catalog #: 10-040-CV) supplemented with 10% v/v FBS (Gibco, Catalog #: 26140-079), 1% v/v Penicillin Streptomycin (Gibco, Catalog #15140-122.) OVCAR3 cells grown at log phase were trypsinized, counted, and resuspended in fresh medium to reach a final density of 6.7e4 cells/mL and 75 μL of culture were dispensed into a 384-well plate (Falcon, cat #353962) using Multidrop Combi dispenser (Thermo Scientific). The next day, compounds were dispensed as a 9-point, ½ log serial dilution using a Tecan digital dispenser (D300e), and cells were incubated with compound for 2 hours in a humidified incubator at 37° C. A reference compound at a final concentration of 10 μM was used as a control for maximum inhibition. Each compound was tested in duplicates in each experiment. At the end of the incubation, 25 μL of 16% paraformaldehyde (Electron Microscopy, cat #15710) was slowly added to each well and the plate was incubated at room temperature (RT) for 30 minutes to fix cells. Cells were then permeabilized by incubating with 50 μL/well of wash buffer (lx PBS with 0.1% Triton X-100) 5×5 minutes, followed by 1 hour blocking with 30 μL/well of Odyssey blocking buffer (Li-COR, cat #927-40000), all at RT. Anti-phosphor RB antibody (Cell signaling 8516S) was diluted 1:1000 in Odyssey blocking buffer and 20 μL was added to all wells and incubated overnight in 4° C. with gently rocking. The next day, cells were washed 5×5 min with 50 μL/well of wash buffer, followed with 1 hour incubation with secondary antibody and DRAQ5 diluted in Odyssey blocking buffer (1:500 dilution for secondary antibody and 1:2000 dilution for DRAQ5), 5×5 min washes, and one last wash with water. Plates were dried in 37° C. oven for 5 min and scanned using Li-COR Odyssey CLx imaging system to acquire intensities at 700 and 800 nm channels.

Assay [2] concerns the target T1, CDK4/Cyclin D1 (Homo sapiens, UniProt P11802).
T1 construct: purchased ProQinase; host or cells: insect cell
In words: CDK4/CyclinD1 enzymatic activity assay (TR-FRET). In kind it is biochemical. To be noted: ATP 2 mM final, read-out: CDK4_D1 IC50. The procedure:
CDK4/CyclinD1 Enzymatic Activity Assay
(§1) The inhibitory activity of compounds was evaluated in vitro using TR-FRET assay with white 384-well low volume microplate (Greiner Bio-One). CDK4/Cyclin D1 catalyzed phosphorylation of peptide in the presence and absence of compounds was measured and used in IC5 determination. Recombinant protein complex CDK4/Cyclin D1, expressed from insect cell, was purchased from ProQinase. Testing compounds were dissolved in DMSO at 1 mM and tested in 9-dose IC50 mode. The reaction mixture was prepared by mixing CDK4/CyclinD1 (1 nM final), ULight-4E-BP1 (100 nM final, Perkinelmer, TRF0128-D), and ATP (2 mM final) in assay buffer (20 mM of HEPES pH 7.4, 1 mM of EGTA, 0.05% BSA, 0.005% Tween 20, and 1 mM TCEP). The compound of interest in DMSO was added to each well in 3-fold serial dilution by dispenser (TECAN D300E) to make a 9.9 μL of reaction mixture. After 20 minutes preincubation at room temperature, 0.1 μL MgCl2 (10 mM final) was added to initiate the reaction. Following a 45 minute incubation at 37° C., the reaction was stopped by addition of 2 μL of quenching buffer consisting of Lance detection buffer (Perkinelmer CR97-100C), LANCE Ultra Europium-anti-P-4E-BP1 (Perkinelmer, TRF0216-D), EDTA, and incubate at room temperature for an additional 60 minutes in the dark. The reaction signal was measured by Envision multimode plate reader (PerkinElmer, 2102-0010). IC50 values were determined by fitting the data to the standard 4 parameters with Hill Slope using GraphPad Prism software.

Assay [3] concerns the target CDK2/Cyclin E2 (Homo sapiens, UniProt P24941). In words: CDK2/CyclinE2 enzymatic activity assay (TR-FRET). The assay is classed as biochemical. To be noted: ATP 1 mM final, read-out: CDK2_E1 IC50. The procedure:
CDK2/CyclinE2 Enzymatic Activity Assay
as §1, with “Bio-One). CDK2/Cyclin E2” for “Bio-One). CDK4/Cyclin D1”, “in IC50” for “in IC5”, “complex CDK2/Cyclin E2,” for “complex CDK4/Cyclin D1,”, “mixing CDK2/CyclinE2” for “mixing CDK4/CyclinD1”, “ULight-4E-BP1 (50” for “ULight-4E-BP1 (100”, “ATP (1” for “ATP (2”
(In general: TR-FRET usually uses a lanthanide donor and a delayed reading to cut background.)

Molecules are shown by their SMILES.

T1 sequence (P11802 whole entry): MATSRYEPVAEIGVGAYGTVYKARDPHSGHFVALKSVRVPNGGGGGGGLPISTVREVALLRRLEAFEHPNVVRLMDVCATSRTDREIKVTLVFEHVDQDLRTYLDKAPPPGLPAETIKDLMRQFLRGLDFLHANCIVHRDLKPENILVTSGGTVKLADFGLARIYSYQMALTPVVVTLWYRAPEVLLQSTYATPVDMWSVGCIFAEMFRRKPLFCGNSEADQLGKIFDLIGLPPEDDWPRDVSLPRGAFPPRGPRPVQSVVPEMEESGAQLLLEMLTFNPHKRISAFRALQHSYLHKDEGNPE
T1 sequence (P24385 whole entry partner): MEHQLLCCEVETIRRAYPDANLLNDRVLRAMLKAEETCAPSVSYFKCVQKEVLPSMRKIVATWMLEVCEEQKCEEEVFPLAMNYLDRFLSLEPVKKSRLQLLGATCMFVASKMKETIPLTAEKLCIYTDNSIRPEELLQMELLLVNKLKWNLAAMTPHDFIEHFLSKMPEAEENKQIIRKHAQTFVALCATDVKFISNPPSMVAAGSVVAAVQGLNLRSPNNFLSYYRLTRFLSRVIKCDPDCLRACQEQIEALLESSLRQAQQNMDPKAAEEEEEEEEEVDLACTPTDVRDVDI

Broadly, the IC50 is the midpoint of a concentration-inhibition curve. Take `CS(=O)(=O)N1CCC(Nc2ncc(C(F)(F)F)c(-c3cnc(N4CCCC4)s3)n2)CC1` [Example 1, N-(1-Methylsulfonylpiperidin-4-yl)-4-(2-pyrrolidin-1-yl-1,3-thiazol-5-yl)-5-(trifluoromethyl)pyrimidin-2-amine]: the IC50 in assay [1] was 100 to 1000 nM; in assay [2], no more than 100 nM; in assay [3], no more than 100 nM.

Regarding `CS(=O)(=O)N1CCC(Nc2ncc(C(F)(F)F)c(-c3cnc(C4=CCOCC4)s3)n2)CC1` [Example 2, 4-[2-(3,6-Dihydro-2H-pyran-4-yl)-1,3-thiazol-5-yl]-N-(1-methyl-sulfonylpiperidin-4-yl)-5-(trifluoromethyl)pyrimidin-2-amine], the IC50 in assay [1] is 100 to 1000 nM; in assay [2], no more than 100 nM; in assay [3], 100 to 1000 nM.

Consider `CS(=O)(=O)N1CCC(Nc2ncc(C(F)(F)F)c(-c3cnc(C4CCOCC4)s3)n2)CC1` [Example 3, N-(1-methylsulfonylpiperidin-4-yl)-4-[2-(oxan-4-yl)-1,3-thiazol-5-yl]-5-(trifluoromethyl)pyrimidin-2-amine], for which the IC50 in assay [1] was 100 to 1000 nM; in assay [2] it was no more than 100 nM; in assay [3], no more than 100 nM.

On to `CS(=O)(=O)N1CCC(Nc2ncc(C(F)(F)F)c(-c3cnc(C4=CCCC4)s3)n2)CC1` [Example 4, 4-[2-(Cyclopenten-1-yl)-1,3-thiazol-5-yl]-N-(1-methylsulfonylpiperidin-4-yl)-5-(trifluoromethyl)pyrimidin-2-amine], for which the results for the IC50 in assay [1], in assay [2] and in assay [3] were greater than 1000 nM, no more than 100 nM and no more than 100 nM, respectively.

Consider `CS(=O)(=O)N1CCC(Nc2ncc(C(F)(F)F)c(-c3cnc(C4CCCC4)s3)n2)CC1` [Example 5, 4-(2-Cyclopentyl-1,3-thiazol-5-yl)-N-(1-methylsulfonylpiperidin-4-yl)-5-(trifluoromethyl)pyrimidin-2-amine], for which the IC50 in assay [2] and in assay [3] was no more than 100 nM throughout.

In the case of `CS(=O)(=O)N1CCC(Nc2ncc(C(F)(F)F)c(-c3cnc(-c4ccc(CO)cc4)s3)n2)CC1` [Example 6, [4-[5-[2-[(1-Methylsulfonylpiperidin-4-yl)amino]-5-(trifluoromethyl)-pyrimidin-4-yl]-1,3-thiazol-2-yl]phenyl]methanol], the concentration for half-maximal inhibition (IC50) in assay [1] was 100 to 1000 nM; in assay [2] it was no more than 100 nM; in assay [3], no more than 100 nM.

Take `Cc1nc(C)c(-c2nc(NC3CCN(S(C)(=O)=O)CC3)ncc2F)s1` [Example 16, 4-(2,4-dimethylthiazol-5-yl)-5-fluoro-N-(1-(methylsulfonyl)piperidin-4-yl)pyrimidin-2-amine]: the IC50 in assay [2] was greater than 1000 nM; in assay [3], 100 to 1000 nM.

Regarding `Cc1c(-c2ncc(-c3nc(NC4CCN(S(C)(=O)=O)CC4)ncc3C(F)(F)F)s2)cnn1CCO` [Example 18, 2-[5-methyl-4-[5-[2-[(1-methylsulfonylpiperidin-4-yl)amino]-5-(trifluoromethyl)pyrimidin-4-yl]-1,3-thiazol-2-yl]pyrazol-1-yl]ethanol], the IC50 is 100 to 1000 nM in assay [2] and no more than 100 nM in assay [3].

`CS(=O)(=O)N1CCC(Nc2ncc(C(F)(F)F)c(-c3cnc(-c4ccccc4CO)s3)n2)CC1` [Example 23, [2-[5-[2-[(1-Methylsulfonylpiperidin-4-yl)amino]-5-(trifluoromethyl)pyrimidin-4-yl]-1,3-thiazol-2-yl]phenyl]methanol]: the IC50 in assay [3] was no more than 100 nM.

`Cc1ncc(-c2nc(NC3CCN(S(C)(=O)=O)CC3)ncc2C(F)F)s1` [Example 43, 5-(Difluoromethyl)-N-(1-methylsulfonylpiperidin-4-yl)-4-(2-methyl-1,3-thiazol-5-yl)pyrimidin-2-amine]: the IC50 in assay [2] was 100 to 1000 nM; in assay [3], no more than 100 nM.

As for `CCOc1ncc(-c2nc(NC3CCN(S(C)(=O)=O)CC3)ncc2C(F)F)s1` [Example 49, 5-(Difluoromethyl)-4-(2-ethoxy-1,3-thiazol-5-yl)-N-(1-methylsulfonylpiperidin-4-yl)pyrimidin-2-amine], the IC50 in assay [2] and in assay [3] was 100 to 1000 nM throughout.

As for `COc1ncc(-c2nc(NC3CCN(S(C)(=O)=O)CC3)ncc2C(F)F)s1` [Example 50, 5-(difluoromethyl)-4-(2-methoxy-1,3-thiazol-5-yl)-N-(1-methylsulfonyl-piperidin-4-yl)pyrimidin-2-amine], the IC50 was 100 to 1000 nM in assay [2] and no more than 100 nM in assay [3].

As to `CC(C)Oc1ncc(-c2nc(NC3CCN(S(C)(=O)=O)CC3)ncc2C(F)F)s1` [Example 51, 5-(Difluoromethyl)-N-(1-methylsulfonylpiperidin-4-yl)-4-(2-propan-2-yloxy-1,3-thiazol-5-yl)pyrimidin-2-amine], the IC50 in assay [2] and in assay [3] was no more than 100 nM each time.

As to `COCc1ncc(-c2nc(NC3CCN(S(C)(=O)=O)CC3)ncc2C(F)(F)F)s1` [Example 53, 4-[2-(Methoxymethyl)-1,3-thiazol-5-yl]-N-(1-methylsulfonylpiperidin-4-yl)-5-(trifluoromethyl)pyrimidin-2-amine], the IC50 in assay [2] was 100 to 1000 nM; in assay [3], no more than 100 nM.

Regarding `CCOC(=O)Nc1ncc(-c2nc(NC3CCN(S(C)(=O)=O)CC3)ncc2C(F)(F)F)s1` [Example 55, Ethyl N-[5-[2-[(1-methylsulfonylpiperidin-4-yl)amino]-5-(trifluoromethyl)pyrimidin-4-yl]-1,3-thiazol-2-yl]carbamate], the IC50 is greater than 1000 nM in assay [2] and 100 to 1000 nM in assay [3].

For the compound `CC(C)NC(=O)Nc1ncc(-c2nc(NC3CCN(S(C)(=O)=O)CC3)ncc2C(F)(F)F)s1` [Example 56, 1-[5-[2-[(1-Methylsulfonylpiperidin-4-yl)amino]-5-(trifluoromethyl)pyrimidin-4-yl]-1,3-thiazol-2-yl]-3-propan-2-ylurea], the IC50 in assay [2] is greater than 1000 nM; in assay [3] it was 100 to 1000 nM.

For `Cc1ncc(-c2nc(NC3CCN(S(C)(=O)=O)CC3)ncc2C(F)(F)F)o1` [Example 66, 4-(2-methyl-1,3-oxazol-5-yl)-N-(1-methylsulfonylpiperidin-4-yl)-5-(trifluoromethyl)pyrimidin-2-amine], the IC50 in assay [2] was greater than 1000 nM; in assay [3], 100 to 1000 nM.
